According to paper PMC10761937, “Functional engineering of human iPSC‐derived parasympathetic neurons enhances responsiveness to gastrointestinal hormones” (FEBS Open Bio, 2023):

Assays:
Type in all cases: cell-based, human
GLP1R‐neurons [1] = experiment: MEA recording of neuronal firing, GLP1R‐neurons; conditions: 10 nM GLP1; day 27; 0 nM n = 31 electrodes, 10 nM n = 34 electrodes; 5 min before and after ligand addition
Description: (§1) Before initiating differentiation, the iPSCs (1–2 × 10^5 cells·cm^−2; Cell lines and cell culture section) were transferred to 6‐well plates (Corning, Inc., Corning, NY, USA) coated with 2‐methacryloyloxyethyl phosphorylcholine (MPC) polymer (Lipidure CM5206E; NOF, Tokyo, Japan). The cells were maintained in mTeSR1 cGMP medium containing 10 μM Y‐27632 (Fujifilm Wako Pure Chemical Industries) for 2 or 3 days to form embryoid body (EBs) in a rotary shaker at 95 r.p.m. (OS‐762RC; Optime, Tokyo, Japan). Subsequently, iPSCs were differentiated into neural crest cells (NCCs), as previously reported. Briefly, NCCs were induced from Ebs using knockout serum replacement (KSR) medium and N2 medium with graded addition of nerve growth factors and signaling factors. KSR medium was composed of DMEM‐F12 (Fujifilm Wako Pure Chemical Industries), 20% KSR (Thermo Fisher Scientific), 1% NEAA, 1% monothioglycerol (Fujifilm Wako Pure Chemical Industries), and 1% P/S. N2 medium consisted of DMEM‐F12, 1% N2 supplement (Fujifilm Wako Pure Chemical Industries), 1% NEAA, and 1% P/S. When EB formation was considered day 0 of induction, the medium was changed at days 2, 5, 7, 9, and 12. […]

GLP1R‐neurons [2] = experiment: Ca^2+ imaging, GLP1R‐neurons (iPSC‐derived); conditions: 10 nM GLP1 (GLP1 (7–37) in method), day 35, Fluo‐8 AM
Description: as §1

NPY2R‐neurons = experiment: MEA recording of neuronal firing, NPY2R‐neurons; conditions: PYY, 10 nM or 100 nM (both printed in Fig. 6 legend); day 27; 0 nM n = 8 electrodes, 100 nM n = 6 electrodes; Fig. 6F
Description: as §1

| Substance | Change rate of firing frequency (GLP1R‐neurons [1]) | Intracellular Ca^2+ concentration of selected GLP1R‐neurons (traces) (GLP1R‐neurons [2]; Fig. S5B) | Ratio of change (ΔF stim/F 0) in mean fluorescence intensity before and after ligand addition (GLP1R‐neurons [2]; n = 10, Student's t‐test vs. 0 nM, Fig. 6C) | Firing frequency (NPY2R‐neurons) |
| --- | --- | --- | --- | --- |
| GLP1: GLP1 (4280‐v; Peptide Institute, Inc.); GLP1 (7–37) in Ca2+ imaging (HAEGTFTSDVSSYLEGQAAKEFIAWLVKGRG; Glucagon-like peptide 1(7-37); UniProt P01275 98-128, looked up) | increased the change rate of firing frequency | increased the intracellular Ca^2+ concentration | significantly increased |  |
| PYY: PYY (4400‐v; Peptide Institute, Inc.); PYY (3–36) in Ca2+ imaging |  |  |  | significantly increased fluorescence intensity and firing frequency |
